Reference: patent publication US20250214942A1, “INHIBITORS OF RECEPTOR INTERACTING PROTEIN KINASE I FOR THE TREATMENT OF DISEASE” (Board of Regents, The University of Texas System, priority 2019, published 2025)
Like-named read-outs stand apart in the source and are kept apart here.

What was measured:
[1] = system: human monocytic cell line U937; assay: Human U937 cellular necroptosis assay (TNFalpha + z-VAD-FMK, Cell Titer-Glo viability); format: cell-based; conditions: Homo sapiens, U-937, 22 h, U937 cells, 25 ng/mL human TNFalpha + 25 μM z-VAD-FMK, read-out: hU937 Avg IC50
In short: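 Readout is CellTiter-Glo 2.0 luminescence after 22 h at 37° C with compound, in cells triggered by human TNFalpha (25 ng/mL) and z-VAD-FMK (25 μM) in phenol red-free RPMI/10% FBS. Values are run-averaged IC50s from a four-parameter logistic curve.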

RIPK1 = RIPK1 (Homo sapiens (Human), UniProt Q13546); assay: ADP-Glo kinase assay (RIPK1 activity, conversion of ATP to ADP); format: biochemical; conditions: 5 nM RIPK1, 50 μM ATP, 6 h reaction, read-out: RIPK1 Enzyme Avg IC50
Chain of RIPK1 (Q13546 1-327): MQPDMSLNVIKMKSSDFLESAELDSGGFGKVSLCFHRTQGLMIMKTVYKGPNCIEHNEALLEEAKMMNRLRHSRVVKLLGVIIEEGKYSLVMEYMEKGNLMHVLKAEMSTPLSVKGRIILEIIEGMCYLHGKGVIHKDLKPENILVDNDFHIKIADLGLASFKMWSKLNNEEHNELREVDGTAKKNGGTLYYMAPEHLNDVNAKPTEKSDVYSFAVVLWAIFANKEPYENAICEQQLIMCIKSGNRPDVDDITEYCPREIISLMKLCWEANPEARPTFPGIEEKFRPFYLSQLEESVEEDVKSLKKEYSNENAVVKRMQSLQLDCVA
Procedure: In order to measure RIPK1 activity the ADP-Glo kinase assay (Promega, Catalog #V7002) was used to measure the conversion of ATP to ADP. This enzymatic assay was performed in a 384-well white, Optiplate (Perkin Elmer, Catalog #6007299) with assay buffer consisting of 50 mM HEPES pH 7.5 (Gibco, Catalog #15630-080), 50 mM NaCl (Teknova, Catalog #S0252), 30 mM MgCl2 (Ambion, Catalog #AM9530G), 1 mM DTT (Santa Cruz Biotechnology, Catalog #sc-29089), 0.05% BSA (Sigma, Catalog #A3059-50G) and 0.02% CHAPS (Sigma, Catalog #C5070-5G). Stock solutions of the test compounds were prepared in 100% DMSO (Sigma, Catalog #D2650) and serially diluted 1:3 using 100% DMSO. Compounds were additionally diluted 1:40 in assay buffer, and 2 μL/well were transferred to the assay plate. 4 μL/well (final concentration of 5 nM) of RIPK1 protein (SignalChem, Catalog #R07-1IG-05) diluted in assay buffer and added to the assay plate followed by a 10 minute preincutation at rt. 4 μL/well of ATP (Promega, Catalog #V7002) (final concentration of 50 μM) diluted in assay buffer were then added to the assay plate followed by a 6 h reaction time. Final concentrations of RIPK1 and ATP refer to a 10 μL volume. Luminescence was measured using a BioTek Synergy™ NEO plate reader. IC50 values were calculated using a four-parameter logistic curve fit using Genedata Screener software.

Row | Structure (SMILES) | IC50 [1] [nM] | IC50 (RIPK1) [nM] | IC50 (RIPK1; footnote symbol (a)) [nM]
1 | N#Cc1cnn(CC23CC(C(=O)N4N=CCC4c4ccccc4)(C2)C3)c1 (centres unmarked) [Example 138, 1-((3-(5-phenyl-4,5-dihydro-1H-pyrazole-1-carbonyl)-bicyclo[1.1.1]pentan-1-yl)methyl)-1H-pyrazole-4-carbonitrile] | 417 | 113 | –
2 | O=C(N1N=CCC1c1cncc(F)c1)C12CC(Cn3ncc4c(F)cccc43)(C1)C2 (centres unmarked) [Example 14, (3-((4-Fluoro-1H-indazol-1-yl)methyl)bicyclo[1.1.1]pentan-1-yl)(5-(5-fluoropyridin-3-yl)-4,5-dihydro-1H-pyrazol-1-yl)methanone] | 24 | 12 | –
3 | N#Cc1cc2cnn(CC34CC(C(=O)N5N=CCC5c5cc(F)cc(F)c5)(C3)C4)c2cn1 (centres unmarked) [Example 213, 1-((3-(5-(3,5-difluorophenyl)-4,5-dihydro-1H-pyrazole-1-carbonyl)bicyclo[1.1.1]pentan-1-yl)methyl)-1H-pyrazolo[3,4-c]pyridine-5-carbonitrile] | 63 | 33 | –
4 | COc1ccc(C(F)C23CC(C(=O)N4N=CCC4c4cc(F)cc(F)c4)(C2)C3)cc1 (centres unmarked) [Example 228, (5-(3,5-difluorophenyl)-4,5-dihydro-1H-pyrazol-1-yl)(3-(fluoro(4-methoxyphenyl)-methyl)bicyclo[1.1.1]pentan-1-yl)methanone] | 2400 | 433 | –
5 | N#Cc1ccc2c(cnn2CC23CC(C(=O)NCc4cc(F)cc(F)c4)(C2)C3)c1 [Example 261, 3-((5-cyano-1H-indazol-1-yl)methyl)-N-(3,5-difluoro-benzyl)bicyclo[1.1.1]pentane-1-carboxamide] | 9470 | 4520 | –
6 | N#Cc1cccc(OCC23CC(C(=O)N4CC(F)CC4c4cccc(F)c4)(C2)C3)n1 (centres unmarked) [Example 94, 6-((3-(4-fluoro-2-(3-fluoro-phenyl)pyrrolidine-1-carbonyl)bicyclo[1.1.1]-pentan-1-yl)methoxy)-picolinonitrile] | 994 | 109 | –
7 | O=C(N1N=CCC1c1ccccc1)C12CC(Cn3ncc4ncccc43)(C1)C2 (centres unmarked) [Example 147, (3-((1H-pyrazolo[4,3-b]-pyridin-1-yl)methyl)-bicyclo[1.1.1]pentan-1-yl)(5-phenyl-4,5-dihydro-1H-pyrazol-1-yl)methanone] | 142 | 30 | –
8 | O=C(N1N=CCC1c1cc(F)cc(F)c1)C12CC(COc3cc(F)cnc3F)(C1)C2 (centres unmarked) [Example 328, (5-(3,5-difluorophenyl)-4,5-dihydro-1H-pyrazol-1-yl)(3-(((2,5-difluoropyridin-3-yl)-oxy)methyl)bicyclo[1.1.1]-pentan-1-yl)methanone] | 409 | 116 | –
9 | O=C(N1CC(F)CC1c1cccc(F)c1)C12CC(Cn3ncc4ncccc43)(C1)C2 (centres unmarked) [Example 48, (3-((1H-pyrazolo[4,3-b]pyridin-1-yl)methyl)bicyclo[1.1.1]pentan-1-yl)-(4-fluoro-2-(3-fluorophenyl)pyrrolidin-1-yl)methanone] | 1300 | 186 | –
10 | N#Cc1ccc2nn(CC34CC(C(=O)N5N=CCC5c5cc(F)cc(F)c5)(C3)C4)cc2n1 (centres unmarked) [Example 180, 2-((3-(5-(3,5-difluorophenyl)-4,5-dihydro-1H-pyrazole-1-carbonyl)bicyclo[1.1.1]-pentan-1-yl)methyl)-2H-pyrazolo[4,3-b]pyridine-5-carbonitrile] | – | 392 | –
11 | CC(=O)NC12CC(C(=O)N3CCCC3c3cccc(C)c3)(C1)C2 (centres unmarked) [Example 119, N-(3-(2-(m-tolyl)pyrrolidine-1-carbonyl)bicyclo[1.1.1]-pentan-1-yl)acetamide] | – | – | > 50000
12 | O=C(N1N=CCC1c1cc(F)cc(F)c1)C12CC(CN3CC(F)(F)C3)(C1)C2 (centres unmarked) [Example 79, (3-((3,3-difluoroazetidin-1-yl)methyl)bicyclo[1.1.1]-pentan-1-yl)(5-(3,5-difluoro-phenyl)-4,5-dihydro-1H-pyrazol-1-yl)methanone] | – | 425 | –
13 | O=C(N1N=CCC1c1ccccc1)C12CC(O)(C1)C2 (centres unmarked) [Example 45, (3-Hydroxybicyclo[1.1.1]pentan-1-yl)(5-phenyl-4,5-dihydro-1H-pyrazol-1-yl)methanone] | – | 8590 | –
14 | O=C(N1N=CCC1c1cc(F)cc(F)c1)C12CC(Cn3cc(CO)nn3)(C1)C2 (centres unmarked) [Example 150, (5-(3,5-difluorophenyl)-4,5-dihydro-1H-pyrazol-1-yl)(3-((4-(hydroxymethyl)-1H-1,2,3-triazol-1-yl)methyl)-bicyclo[1.1.1]pentan-1-yl)methanone] | – | 5460 | –
15 | O=C(N1CC(F)CC1c1cccc(F)c1)C12CC(CO)(C1)C2 (centres unmarked) [Example 24, (4-Fluoro-2-(3-fluorophenyl)pyrrolidin-1-yl)(3-(hydroxymethyl)bicyclo[1.1.1]pentan-1-yl)methanone] | – | 38800 | –
16 | COCC12CC(C(=O)N3CC(F)CC3c3cccc(F)c3)(C1)C2 (centres unmarked) [Example 35, (4-Fluoro-2-(3-fluorophenyl)pyrrolidin-1-yl)(3-(methoxymethyl)-bicyclo[1.1.1]pentan-1-yl)methanone] | – | 4630 | –
17 | N#Cc1cncc(OCC23CC(C(=O)N4CC(F)CC4c4cccc(F)c4)(C2)C3)n1 (centres unmarked) [Example 96, 6-((3-(4-fluoro-2-(3-fluoro-phenyl)pyrrolidine-1-carbonyl)bicyclo[1.1.1]-pentan-1-yl)methoxy)-pyrazine-2-carbonitrile] | – | 162 | –
18 | N#Cc1cccc(OCC23CC(C(=O)N4CC(F)CC4c4cccc(F)c4)(C2)C3)c1 (centres unmarked) [Example 107, 3-((3-(4-fluoro-2-(3-fluoro-phenyl)pyrrolidine-1-carbonyl)bicyclo[1.1.1]-pentan-1-yl)methoxy)-benzonitrile] | – | 183 | –
19 | O=C(O)C12CC(C(=O)N3N=CCC3c3cc(F)cc(F)c3)(C1)C2 (centres unmarked) [Example 2, 3-(5-(3,5-Difluorophenyl)-4,5-dihydro-1H-pyrazole-1-carbonyl)-bicyclo[1.1.1]pentane-1-carboxylic acid] | – | 21200 | –
20 | CN(C)C(=O)C12CC(C(=O)N3N=CCC3c3cc(F)cc(F)c3)(C1)C2 (centres unmarked) [Example 10, 3-(5-(3,5-Difluorophenyl)-4,5-dihydro-1H-pyrazole-1-carbonyl)-N,N-dimethylbicyclo[1.1.1]pentane-1-carboxamide] | – | 2910 | –
21 | N#Cc1cncn1CC12CC(C(=O)N3N=CCC3c3cc(F)cc(F)c3)(C1)C2 (centres unmarked) [Example 123, 1-((3-(5-(3,5-difluorophenyl)-4,5-dihydro-1H-pyrazole-1-carbonyl)bicyclo[1.1.1]-pentan-1-yl)methyl)-1H-imidazole-5-carbonitrile] | – | 501 | –
22 | O=C(N1N=CCC1c1cc(F)cc(F)c1)C12CC(CN3C(=O)C4(CC4)c4ccccc43)(C1)C2 (centres unmarked) [Example 125, 1′-((3-(5-(3,5-difluorophenyl)-4,5-dihydro-1H-pyrazole-1-carbonyl)-bicyclo[1.1.1]pentan-1-yl)methyl)-spiro[cyclopropane-1,3′-indolin]-2′-one] | – | 2800 | –
23 | O=C(N1N=CCC1c1cc(F)cc(F)c1)C12CC(Cn3ncc4c(F)cncc43)(C1)C2 (centres unmarked) [Example 15, (5-(3,5-Difluorophenyl)-4,5-dihydro-1H-pyrazol-1-yl)(3-((4-fluoro-1H-pyrazolo[3,4-c]-pyridin-1-yl)methyl)bicyclo[1.1.1]pentan-1-yl)methanone] | – | 22 | –
